For assay [1], the target named is GABA-A receptor; anion channel. Briefly: Displacement of [3H]muscimol from rat brain gamma-aminobutyric-acid GABA-A receptor.
Assay [2] concerns GABA-A receptor (Mus musculus). Briefly: cells.

As a reminder, the Ki is a dissociation constant, usually derived from enzyme kinetics or from competition with a known ligand. Higher therefore signals lower affinity. A word on the IC50: it is the concentration that gives 50% inhibition. Lower therefore signals higher potency. Take `Oc1noc(C2CCNCC2)c1Cc1ccc2cccc(Br)c2c1`: the Ki in assay [1] came out at 45 nM. In addition, the midpoint of inhibition in assay [2], the IC50, lay at 226 nM.

In turn, `O=c1[nH]oc(C2CCNCC2)c1-c1cccc2ccccc12` registered a Ki in assay [1] of 820 nM. In assay [2], this compound had an IC50 of 334 nM.

Regarding `Oc1noc(C2CCNCC2)c1-c1ccc2ccccc2c1`, affinity in assay [1] was put at a Ki of 36 nM. The same compound yielded an IC50 in assay [2] of 141 nM.

For the compound `Oc1noc(C2CCNCC2)c1Cc1ccc2ccccc2c1Sc1ccccc1`, the affinity in assay [1] corresponds to a Ki of 250 nM. The IC50 in assay [2] is 126 nM.

Take `Oc1noc(C2CCNCC2)c1Cc1ccc2ccccc2c1`: the IC50 in assay [2] stood at 370 nM.

As for `Oc1noc(C2CCNCC2)c1-c1ccccc1`, the affinity in assay [1], expressed as Ki, was 220 nM. Moreover, inhibition in assay [2] was half-maximal at 159 nM (IC50).

`N#Cc1c(Cc2c(O)noc2C2CCNCC2)ccc2ccccc12` displayed an inhibitory constant (Ki) in assay [1] of 28 nM. This compound also yielded an IC50 in assay [2] of 140 nM.

Regarding `Oc1noc(C2CCNCC2)c1Cc1ccc2ccccc2c1F`, the affinity in assay [1] corresponds to a Ki of 19 nM. The compound also displayed an IC50 in assay [2] of 242 nM.

The compound `Oc1noc(C2CCNCC2)c1Cc1ccc2ccccc2c1Br` registered a Ki in assay [1] of 10 nM. The compound further came in with an IC50 in assay [2] of 42 nM.

`Oc1noc(C2CCNCC2)c1Cc1ccc2ccc(Br)cc2c1`: in assay [1], the affinity, expressed as Ki, was 109 nM. In addition, half-maximal inhibition in assay [2] (IC50) required 384 nM.

In assay [1], `Oc1noc(C2CCNCC2)c1Cc1ccc2ccccc2c1-c1ccccc1` showed a Ki of 21 nM. Inhibition in assay [2] was half-maximal at 198 nM (IC50).

`Oc1noc(C2CCNCC2)c1Cc1ccc2c(Br)cccc2c1`: the affinity in assay [1] corresponds to a Ki of 80 nM. The compound further registered an IC50 in assay [2] of 215 nM.

As for `Oc1noc(C2CCNCC2)c1Cc1ccc2ccccc2c1Cl`, the Ki in assay [1] amounted to 16 nM. The same compound yielded a half-inhibitory concentration (IC50) in assay [2] of 113 nM.

For `CSc1c(Cc2c(O)noc2C2CCNCC2)ccc2ccccc12`, affinity in assay [1] was put at a Ki of 28 nM. In assay [2], this compound yielded an IC50 of 61 nM.

For the origin of these results see ChEMBL document CHEMBL1145174, “Potent 4-aryl- or 4-arylalkyl-substituted 3-isoxazolol GABA(A) antagonists: synthesis, pharmacology, and molecular modeling” (J Med Chem, 2005).
